Results on 22 molecules are retold here after EP0121972A2, “N-aryl-alpha-amino-carboxamides” (JANSSEN PHARMACEUTICA N.V., priority 1983, dated 1984).

In the experiment the test system is multifocal ventricular arrhythmia. Put plainly: Antiarrhythmic effect in dogs with ventricular arrhythmia after coronary artery ligation. It is filed as in vivo. The conditions noted are these: given intravenously; for minimal effective dose: Canis lupus familiaris, iv, lowest effective dose normalizing the cardial rhythm, about 16 hours after ligation of the anterior descendent branch of the left coronary artery, under neuroleptanalgesia, read-out: Antiarrhythmic effects in dogs LED in mg/kg body weight; for Antiarrhythmic effects in dogs duration: duration of action at the lowest effective dose, coronary-ligated dogs. The protocol:
The compounds of formula (I) and their pharmaceutically acceptable acid addition salts and possible stereochemically isomeric forms thereof show excellent antiarrhythmic properties and as such they are useful in the normalization of irregular cardial rhythms. The antiarrhythmic effect of the compounds of this invention is clearly illustrated in the following experiment in dogs. The test was carried out under neuroleptanalgesia (1 ml per 10 kg body weight of fentanyl (0.4 mg/ml) and droperidol (20 mg/ml)).
The test compounds were given intravenously after a control period of 30 minutes.

For `CO[C@@H]1CCCC[C@H]1N1CCC(C(=O)Nc2c(C)cccc2C)(N(C)C)CC1` (relative stereo) [compound 18, trans-4-(dimethylamino)-N-(2,6-dimethylphenyl)-l-(2-methoxycyclo-hexyl)-4-piperidinecarboxamide], the minimal effective dose came to 0.08 mg/kg and the “Antiarrhythmic effects in dogs duration” value was found to be 150 min.
On the same counts, the results for `Cc1cccc(C)c1NC(=O)C1(N(C)C)CCN([C@@H]2CCCC[C@H]2O)CC1` (relative stereo) [compound 89, trans-4-(dimethylamino)-N-(2,6-dimethylphenyl)-1-(2-hydroxycyclohexyl)-4-piperidinecarboxamide] are 0.04 mg/kg and 240 min.
On to `Cc1cccc(C)c1NC(=O)C1(N(C)C)CCN([C@@H]2CCC[C@H]2O)CC1` (relative stereo) [compound 91], for which the minimal effective dose is 0.08 mg/kg and the “Antiarrhythmic effects in dogs duration” value was determined as 220 min.
On the same counts, the results for `CCN(CC)C1(C(=O)Nc2c(C)cccc2C)CCN([C@@H]2CCC[C@H]2O)CC1` (relative stereo) [compound 92] are 0.31 mg/kg and 205 min.
Consider `CCN(CC)C1(C(=O)Nc2c(C)cccc2C)CCN([C@@H]2CCCC[C@H]2O)CC1` (relative stereo) [compound 93], for which the minimal effective dose came to 0.63 mg/kg and the “Antiarrhythmic effects in dogs duration” value was determined as 30 min.
On the same counts, the results for `Cc1cc(N(C)C)cc(C)c1NC(=O)C1(N(C)C)CCN([C@@H]2CCCC[C@H]2O)CC1` (relative stereo) [compound 125] are 0.08 mg/kg and 165 min.
Regarding `Cc1cccc(C)c1NC(=O)C1(N2CCOCC2)CCN([C@@H]2CCCC[C@H]2O)CC1` (relative stereo) [compound 127, trans-N-(2,6-dimethylphenyl)-l-(2-hydroxycyclohexyl)-4-(4-morpholinyl)-4-piperidinecarboxamide], the minimal effective dose is 0.31 mg/kg and the “Antiarrhythmic effects in dogs duration” value turned out to be 55 min.
As for `Cc1cccc(C)c1NC(=O)C1(N(C)C)CCN([C@@H]2CCC[C@H]2NCc2ccccc2)CC1` (relative stereo) [compound 129, trans-4-(dimethylamino)-N-(2,6-dimethylphenyl)-l-[2-[(phenylmethyl)amino]cyclopentyl]-4-piperidinecarboxamide], the minimal effective dose was found to be 0.08 mg/kg.
With `Cc1cccc(C)c1NC(=O)C1(N(C)C)CCN([C@@H]2CCNC[C@H]2O)CC1` (relative stereo) [compound 210, trans-4-(dimethylamino)-N-(2,6-dimethylphenyl)-3'-hydroxy-[1,4'-bipiperidine]-4-carboxamide], the minimal effective dose was determined as 0.16 mg/kg and the “Antiarrhythmic effects in dogs duration” value amounted to 25 min.
In the case of `Cc1cccc(C)c1NC(=O)C1(N(C)C)CCN([C@H]2CNCC[C@@H]2O)CC1` (relative stereo) [compound 211, trans-4-(dimethylamino)-N-(2,6-dimethylphenyl)-4'-hydroxy-[l,3'-bipiperidine]-4-carboxamide], the minimal effective dose stood at 0.63 mg/kg and the “Antiarrhythmic effects in dogs duration” value amounted to 160 min.
On the same counts, the results for `Cc1cccc(C)c1NC(=O)C1(N(C)C)CCN([C@H]2CCC[C@@H]2N)CC1` (relative stereo) [compound 217, trans-l-(2-aminocyclopentyl)-4-(dimethylamino)-N-(2,6-dimethylphenyl)-4-piperidinecarboxamide] are 0.31 mg/kg and 50 min.
`CC(=O)N[C@H]1CCC[C@@H]1N1CCC(C(=O)Nc2c(C)cccc2C)(N(C)C)CC1` (relative stereo) [compound 219, trans-l-[2-(acetylamino)cyclopentyl]-4-(dimethylamino)-N-(2,6-dimethylphenyl)-4-piperidinecarboxamide]: the minimal effective dose amounted to 0.08 mg/kg and the “Antiarrhythmic effects in dogs duration” value came to 285 min.
On the same counts, the results for `Cc1cccc(C)c1NC(=O)C1(N(C)C)CCN([C@H]2CCCC[C@@H]2NC(N)=O)CC1` (relative stereo) [compound 224, trans-1-[2-[(aminocarbonyl)-amino]cyclohexyl]-4-(dimethyJamino)-N-(2,6-dimethylphenyl)-4-piperidinecarboxamide] are 0.04 mg/kg and 130 min.
Turning to `Cc1cccc(C)c1NC(=O)C1(N(C)C)CCN([C@@H]2CCC[C@H]2N(CCO)Cc2ccccc2)CC1` (relative stereo) [compound 225, trans-4-(dimethyl-amino)-N-(2,6-dimethylphenyl)-1-[2-[(2-hydroxyethyl)(phenylmethyl)-amino]cyclopentyl]-4-piperidinecarboxamide], the minimal effective dose turned out to be 0.08 mg/kg and the “Antiarrhythmic effects in dogs duration” value turned out to be 140 min.
Taken in the same sequence, the figures for `Cc1cccc(C)c1NC(=O)C1(N(C)C)CCN([C@H]2CCC[C@@H]2NCCO)CC1` (relative stereo) [compound 231, trans-4-(dimethylamino)-N-(2,6-dimethylphenyl)-l-[2-[(2-hydroxyethyl)amino]cyclopentyl]-4-piperidinecarboxamide] were 0.16 mg/kg and >230 min.
On the same counts, the results for `CCN(CC)C1(C(=O)Nc2c(C)cccc2C)CCN(C(C)C)CC1` [compound 53, 4-(diethylamino)-N-(2,6-dimethylphenyl)-1-(1-methylethyl)-4-piperidinecarboxamide] are 0.63 mg/kg and 140 min.
Regarding `CCN(CC)C1(C(=O)Nc2c(C)cccc2C)CCN(C2CCCC2)CC1` [compound 54, 1-cyclopentyl-4-(diethylamino)-N-(2,6-dimethylphenyl)-4-piperidinecarboxamide], the minimal effective dose came to 0.16 mg/kg and the “Antiarrhythmic effects in dogs duration” value came to 240 min.
On the same counts, the results for `Cc1cccc(C)c1NC(=O)C1(N(C)C)CCNCC1` [compound 71, 4-(dimethylamino)-N-(2,6-dimethylphenyl)-4-piperidinecarboxamide] are 1.25 mg/kg and 240 min.
In the case of `CCN(C)C1(C(=O)Nc2c(C)cccc2C)CCNCC1` [compound 73, N-(2,6-dimethylphenyl)-4-(ethylmethylamino)-4-piperidine carboxamide], the minimal effective dose came to 0.63 mg/kg and the “Antiarrhythmic effects in dogs duration” value worked out at 30 min.
For `COC1CNCCC1N1CCC(C(=O)Nc2c(C)cccc2C)(N(C)C)CC1` (stereo not drawn) [compound 85, cis-4-(dimethylamino)-N-(2,6-dimethylphenyl)-3'-methoxy-[l,4'-bipiperidine]-4-carboxamide], the minimal effective dose came to 0.63 mg/kg and the “Antiarrhythmic effects in dogs duration” value came out at 65 min.
Turning to `Cc1cccc(C)c1NC(=O)C1(N(C)C)CCN(C2CCNCC2)CC1` [compound 86, 4-(dimethylamino)-N-(2,6-dimethylphenyl)-[1,4'-bipiperidine]-4-carboxamide], the minimal effective dose turned out to be 0.16 mg/kg and the “Antiarrhythmic effects in dogs duration” value was 185 min.
For `Cc1cccc(C)c1NC(=O)C1(N(C)C)CCN(CC(O)CN(Cc2ccccc2)Cc2ccccc2)CC1` (stereo not shown) [compound 96, 1-[3-[bis(phenylmethyl)amino]-2-hydroxypropyl]-4-(dimethylamino)-N-(2,6-dimethylphenyl)-4-piperidinecarboxamide], the minimal effective dose worked out at 0.31 mg/kg and the “Antiarrhythmic effects in dogs duration” value came to 40 min.
